The text below walks through data of patent US8426433B2, priority 2007, dated 2013).

Like-named read-outs stand apart in the source and are kept apart here.

In series [1] the test system is endogenous thrombin potential in normal donor plasma (PPP). Put plainly: Thrombin generation test (endogenous thrombin potential) in normal donor plasma. In kind it is biochemical. To be noted: read-out: IC50 (50% reduction in endogenous thrombin potential). From the text: This method was described in detail in many papers (Hemker H C, Giesen P L, Ramjee M, Wagenvoord R, Beguin S. The thrombogram: monitoring thrombin generation in platelet-rich plasma. Thromb. Haemost., 2000; 83(4): 589-591; Hemker H C, AlDieri R, Beguin S. Thrombin generation assays: accruing clinical relevance. Curr. Opin. Hematol., 2004, 11(3):170-175; Hemker H C, Giesen P, AlDieri R, Regnault V, de Smed E, Wagenvoord R, Lecompte T, Beguin S. The calibrated automated thrombogram (CAT): a universal routine test for hyper- and hypocoagulability. Pathophysiol. Haemost. Thromb., 2002, 32(5-6):249-253). The test is used to measure the kinetics and total quantity of active thrombin generated in a plasma sample over a specified time at a standard clotting activation level in the sample. These applicants' method is suitable for measuring thrombin concentration using a slow-action fluorogenic substrate (BOC-Ile-Gly-Arg-AMC), which gives a highly fluorescent product, 7-amino-4-methylcoumarin (AMC), when broken d own by thrombin. The use of a fluorogenic, rather than chromogenic, substrate is dictated by the fact that the fluorescence level in the sample is virtually unaffected by the solid fibrin clot formed in the metering cell, but this is a qualification that restricts the application of a chromogenic substrate (Hemker H C, Giesen P, AlDieri R, Regnault V, de Smed E, Wagenvoord R, Lecompte T, Beguin S. The calibrated automated thrombogram (CAT): a universal routine test for hyper- and hypocoagulability. Pathophysiol. Haemost. Thromb., 2002, 32(5-6):249-253). On the other hand, it is common knowledge that the bulk of thrombin (about 95%) in the sample is generated after the first clot has already formed (Hemker H C, AlDieri R, Beguin S. Thrombin generation assays: accruing clinical relevance. Curr. Opin. Hematol., 2004, 11(3):170-175).
The kinetics of thrombin generation and ultimately loss in plasma after clotting activation is shown in FIG. 1, which illustrates the relationship between concentration of active thrombin in a plasma sample and time. The area under the thrombin generation time curve (in this invention, from 0 to 50 minutes of incubation) is called endogenous thrombin potential (ETP). The curve is further characterized by tmax, the time when thrombin in the sample reaches maximum concentration, Amax, the maximum thrombin concentration in the system, and tlag, the time before clotting commencement, which is conventionally the time when thrombin reaches a concentration of 5 nM.
Obviously, important clotting information is contained in the shape of thrombin concentration to time curves, as well as the integral ETP level. In particular, against the background of low factor and clotting inhibitor concentration, thrombin concentration maximums can be lower and also broader, although the total ETP might not change at all. The presence of additional thrombin inhibitors in plasma must reduce ETP and maximum attainable thrombin concentration, and increase the clotting lag and the time required for thrombin to achieve maximum concentration.
Measurements were taken as follows: 90 microliters of normal donor plasma (PPP), 0 to 20 microliters of the test substance solution, and 20 to 0 microliters of buffering solution (20 mM of HEPES, 140 mM of NaCal, pH 7.5) were deposited in the holes of a 96 hole board so that the total volume of added substance and buffer is always 20 microliters. Whereupon 20 microliters of a fluorogenic substrate solution (at 5 mM initial concentration) was added to each of the board holes, and plasma was heated for 3 to 5 minutes at 37° C. Next, 25 microliters of a clotting activator solution was added simultaneously (using a multichannel pipette) to all the holes. A thromboplastin solution prepared from a standard thromboplastin reagent diluted to 1/250th of its original concentration by the same buffer further containing 80 mM of CaCl2 to measure the prothrombin time (PT) (RENAM, Russia) was used as activator. […]

A further series in a line: Acute toxicity, LD50. As to conditions: mouse, in vivo, mice.
The conditions of series [2]: Argatroban after clinical testing; cited from earlier work.

The IC50 is the concentration at which inhibition is half-maximal. The term LD50 denotes the dose at which mortality reaches 50%. Consider `Cc1cc(OCCCn2ccsc2=N)cc(OS(=O)(=O)c2ccccc2)c1`, for which the IC50 in series [1] came to 24.8 µM. Besides, the LD50 in “Acute toxicity, LD50” (0.9% NaCl) was greater than 199 mg/kg.

Turning to `CC1CNc2c(cccc2S(=O)(=O)N[C@@H](CCCNC(=N)N)C(=O)N2CC[C@@H](C)C[C@@H]2C(=O)O)C1` (stereo partly drawn) [Argatroban], the LD50 in series [2] is 475 mg/kg.

As to `Cc1cc(OCCC[n+]2ccc(N)cc2)cc(OS(=O)(=O)c2ccccc2)c1` [HC-016s-IOC, 4-amino-1-(3-(3-methyl-5-(benzenesulfonyloxy)phenoxy)propyl)-pyridinium iodide], in series [1], the IC50 is roughly 240 µM.

Turning to `Cc1cc(OCCCSC(=N)N)cc(OS(=O)(=O)c2ccccc2)c1.I` [HC-018s-IOC, 3-(3-methyl-5-(benzenesulfonyloxy)phenoxy)propyl-isothiouronium iodide], the LD50 in the series “Acute toxicity, LD50” (0.9% NaCl + cremophor 20%) is less than 441 mg/kg.

`Cc1cc(OCC[n+]2ccc(N)cc2)cc(OS(=O)(=O)c2ccccc2)c1` [HC-019s-IOC, 4-amino-1-(2-(3-methyl-5-(benzenesulfonyloxy)phenoxy)ethyl)-pyridinium iodide]: the IC50 in series [1] stood at 0.25 µM. Moreover, in “Acute toxicity, LD50” (0.9% NaCl + cremophor 20%), the LD50 is greater than 278 mg/kg.

For the molecule `Cc1cc(OCCSC(=N)N)cc(OS(=O)(=O)c2ccccc2)c1` [HC-020s-IOC, 2-(3-methyl-5-(benzenesulfonyloxy)phenoxy)ethyl-isothiouronium iodide], the LD50 in the series “Acute toxicity, LD50” (0.9% NaCl + cremophor 20%) is greater than 1110 mg/kg.

Regarding `Cc1cc(OCCC[n+]2ccc(N)cc2)cc(OS(=O)(=O)c2ccccc2Cl)c1` [HC-023s-IOC], the IC50 in series [1] was 40 µM.

`CNc1ccc(S(=O)(=O)N(C)c2ccccc2)cc1NC(=O)CC[n+]1ccc(N)cc1.[Cl-]` [HC_028s_IOC]: in series [1], the IC50 was roughly 9 µM. Further, the LD50 in “Acute toxicity, LD50” (0.9% NaCl + cremophor 20%) is 257 ± 31 mg/kg.

As for `Cc1cc(OCCC[n+]2ccc(N)cc2)cc(OS(=O)(=O)c2ccccc2F)c1` [HC_029s_IOC, 4-amino-1-(3-(3-methyl-5-(2-fluorobenzenesulfonyloxy)phenoxy)propyl)-pyridinium iodide], the IC50 in series [1] came out at 27 µM.

With `Cc1cc(OCCC[n+]2ccsc2N)cc(OS(=O)(=O)c2ccccc2F)c1` [HC_030s_IOC], the IC50 in series [1] was roughly 8.6 µM.

Take `Cc1cc(OCCCSC(=N)N)cc(OS(=O)(=O)c2ccccc2F)c1` [HC_031s_IOC]: the IC50 in series [1] came out at 1.24 µM.

In the case of `C/N=C(/N)SCCCOc1cc(C)cc(OS(=O)(=O)c2ccccc2Cl)c1` [HC_032s_IOC], the IC50 in series [1] came to 25.2 µM.

Regarding `C/N=C(/N)CSCCCOc1cc(C)cc(OS(=O)(=O)c2ccccc2Cl)c1` [HC_033s_IOC], the IC50 in series [1] came out at 0.527 µM.

With `Cc1cc(OCC[n+]2ccc(N)cc2)cc(OS(=O)(=O)c2ccccc2S(C)(=O)=O)c1` [HC_036s_IOC], the IC50 in series [1] was 0.158 µM.

`Cc1cc(OCC[n+]2ccc(N)cc2)cc(OS(=O)(=O)c2ccccc2F)c1` [HC_037s_IOC]: the IC50 in series [1] was roughly 0.1 µM.

For the molecule `Cc1ccc(S(=O)(=O)Oc2cc(C)cc(OCC[n+]3ccc(N)cc3)c2)cc1` [HC_038s_IOC], the IC50 in series [1] was roughly 4 µM.

With `Cc1cc(OCC[n+]2ccc(N)cc2)cc(OS(=O)(=O)c2ccc(Cl)cc2)c1` [HC_039s_IOC], the half-inhibitory concentration (IC50) in series [1] turned out to be 0.15 µM.

Turning to `Cc1cc(OCCSC(=N)N)cc(OS(=O)(=O)c2ccccc2S(C)(=O)=O)c1` [HC_040s_IOC], the IC50 in series [1] turned out to be 0.8 µM.

As to `Nc1cc[n+](CCOc2cccc(NS(=O)(=O)c3ccccc3)c2)cc1` [HC_041s_IOC], the IC50 in series [1] came to 1.6 µM.

`Cc1cc(OCC[n+]2ccsc2N)cc(OS(=O)(=O)c2ccccc2Cl)c1` [HC_045s_IOC]: in series [1], the IC50 was determined as 16 µM.

For the molecule `Cc1cc(OCC[n+]2ccc(N)nc2)cc(OS(=O)(=O)c2ccccc2)c1` [HC_047s_IOC], in series [1], the IC50 turned out to be 2.5 µM.
